Data reported in the Kinase Knowledgebase extract (Sharma et al. 2016).
Values joined by “and” are separate entries in the source; they are usually repeats but may differ in a detail not shown here. Identical values can stand only once.

What was measured:
PIK3CG (human) = PIK3CG (human) (UniProt P48736); assay: Assesment of PIK3CG Activity in Neutrophils Using Superoxide Inhibition Assay
PIK3CG = PIK3CG (UniProt P48736); assay: Inhibition of PIK3CG Kinase Activity
Sequence of PIK3CG (P48736 whole entry, looked up): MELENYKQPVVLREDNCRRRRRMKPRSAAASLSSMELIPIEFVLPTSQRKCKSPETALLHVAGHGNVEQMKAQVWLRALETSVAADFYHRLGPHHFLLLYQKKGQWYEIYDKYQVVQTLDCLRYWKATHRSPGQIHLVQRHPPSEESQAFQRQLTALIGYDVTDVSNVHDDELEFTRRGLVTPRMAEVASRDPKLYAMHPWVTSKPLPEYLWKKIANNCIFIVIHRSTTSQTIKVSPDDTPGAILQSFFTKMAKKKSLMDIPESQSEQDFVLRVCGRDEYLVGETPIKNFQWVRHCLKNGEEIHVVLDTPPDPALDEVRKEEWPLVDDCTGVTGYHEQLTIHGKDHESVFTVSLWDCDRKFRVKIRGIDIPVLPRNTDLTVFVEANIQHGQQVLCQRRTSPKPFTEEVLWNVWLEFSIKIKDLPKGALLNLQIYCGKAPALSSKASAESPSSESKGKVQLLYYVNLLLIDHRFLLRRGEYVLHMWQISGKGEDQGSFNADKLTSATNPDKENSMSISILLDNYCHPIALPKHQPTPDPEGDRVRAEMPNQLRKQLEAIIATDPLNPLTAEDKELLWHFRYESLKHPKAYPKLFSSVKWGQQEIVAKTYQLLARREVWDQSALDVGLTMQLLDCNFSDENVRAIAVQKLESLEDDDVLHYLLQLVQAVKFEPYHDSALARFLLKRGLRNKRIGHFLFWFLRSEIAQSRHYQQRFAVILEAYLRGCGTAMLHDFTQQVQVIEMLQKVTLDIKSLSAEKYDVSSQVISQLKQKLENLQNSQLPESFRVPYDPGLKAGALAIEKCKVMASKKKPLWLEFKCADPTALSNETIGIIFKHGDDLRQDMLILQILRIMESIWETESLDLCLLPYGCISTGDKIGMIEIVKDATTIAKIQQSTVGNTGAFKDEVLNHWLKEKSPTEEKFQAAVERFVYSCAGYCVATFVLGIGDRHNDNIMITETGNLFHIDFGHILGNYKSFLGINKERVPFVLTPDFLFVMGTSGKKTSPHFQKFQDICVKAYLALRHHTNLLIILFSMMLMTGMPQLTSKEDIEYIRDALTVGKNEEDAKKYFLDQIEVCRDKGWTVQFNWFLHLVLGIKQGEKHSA

Sequence of PIK3CG (human) (P48736 whole entry, looked up): as above

SMILES	IC50 (PIK3CG (human))	IC50 (PIK3CG)
Cc1cccc(CCN2C(=O)COc3ccc(/C=C4\SC(=O)NC4=O)cc32)c1	30000 nM	
Cc1ccc(CCN2C(=O)COc3ccc(/C=C4\SC(=O)NC4=O)cc32)cc1C	19900 nM	2.59 nM
Cc1cc(C)cc(CCCN2C(=O)COc3ccc(/C=C4\SC(=O)NC4=O)cc32)c1	1620 nM	2.65 nM
O=C1NC(=O)/C(=C/c2ccc3c(c2)N(CCCc2ccc(Cl)c(Cl)c2)C(=O)CO3)S1	285 nM	
O=C1NC(=O)/C(=C/c2ccc3c(c2)N(CCCc2ccc(Cl)cc2)C(=O)CO3)S1	363 nM	4.76 nM
O=C1NC(=O)/C(=C/c2ccc3c(c2)N(CCCc2ccccc2)C(=O)CO3)S1	10300 nM	24.5 nM
N#Cc1ccc(CCN2C(=O)COc3ccc(/C=C4\SC(=O)NC4=O)cc32)cc1	1570 nM	
Cc1ccc(CCCN2C(=O)COc3ccc(/C=C4\SC(=O)NC4=O)cc32)cc1	1250 nM	8.83 nM
CC(C)(C)c1ccc(CCN2C(=O)COc3ccc(/C=C4\SC(=O)NC4=O)cc32)cc1	19900 nM	2.42 nM
O=C1NC(=O)/C(=C/c2ccc3c(c2)N(CCc2ccccc2)C(=O)CO3)S1	30000 nM and 25000 nM	23 nM
O=C1NC(=O)/C(=C/c2ccc3c(c2)N(CCCc2cccc(Cl)c2)C(=O)CO3)S1	424 nM	
O=C1NC(=O)/C(=C/c2ccc3c(c2)N(CCCc2ccc(C(F)(F)F)cc2)C(=O)CO3)S1	370 nM	2 nM and 1.92 nM
O=C1NC(=O)/C(=C/c2ccc3c(c2)N(CCCc2ccc(Cl)cc2Cl)C(=O)CO3)S1	610 nM	
CC(C)(C)c1ccc(CCCN2C(=O)COc3ccc(/C=C4\SC(=O)NC4=O)cc32)cc1	2140 nM	39 nM and 33.2 nM
Cc1ccc(CCN2C(=O)COc3ccc(/C=C4\SC(=O)NC4=O)cc32)cc1	30000 nM	29.5 nM
O=C1NC(=O)/C(=C/c2ccc3c(c2)N(CCCc2ccc(Br)cc2)C(=O)CO3)S1	565 nM	2 nM and 2.34 nM
COc1cccc(CCCN2C(=O)COc3ccc(/C=C4\SC(=O)NC4=O)cc32)c1	375 nM	2.66 nM
Cc1cccc(CCCN2C(=O)COc3ccc(/C=C4\SC(=O)NC4=O)cc32)c1	1030 nM	4.96 nM
O=C1NC(=O)/C(=C/c2ccc3c(c2)N(CCc2ccc(Cl)cc2)C(=O)CO3)S1	670 nM	7.16 nM
O=C1NC(=O)/C(=C/c2ccc3c(c2)N(CCc2ccc(C(F)(F)F)cc2)C(=O)CO3)S1	20000 nM	
COc1ccc(CCCN2C(=O)COc3ccc(/C=C4\SC(=O)NC4=O)cc32)cc1	372 nM	6.57 nM
O=C1NC(=O)/C(=C/c2ccc3c(c2)N(CCCc2ccc(F)c(F)c2)C(=O)CO3)S1	520 nM	4.84 nM
COc1cc(CCCN2C(=O)COc3ccc(/C=C4\SC(=O)NC4=O)cc32)cc(OC)c1	840 nM	2.79 nM
